Test results: US20170152245A1 (National Taiwan University, priority 2015, published 2017)

Columns and labels:
thromboxane receptor = target: T1, thromboxane receptor (Homo sapiens, UniProt P21731); details: cited from earlier work; for Thromboxane receptor: Table III arrows, reference drugs
T1 sequence (P21731 1-343): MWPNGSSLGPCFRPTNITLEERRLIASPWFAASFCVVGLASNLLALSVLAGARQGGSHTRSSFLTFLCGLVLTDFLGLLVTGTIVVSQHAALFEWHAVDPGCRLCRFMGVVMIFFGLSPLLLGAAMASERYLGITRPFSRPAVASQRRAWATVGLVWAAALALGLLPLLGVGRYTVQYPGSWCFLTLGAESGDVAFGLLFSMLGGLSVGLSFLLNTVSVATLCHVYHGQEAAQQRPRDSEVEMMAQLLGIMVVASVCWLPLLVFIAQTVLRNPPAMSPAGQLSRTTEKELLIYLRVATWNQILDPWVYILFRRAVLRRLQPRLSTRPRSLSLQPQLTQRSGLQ

Thromboxane synthase = target: T2, Thromboxane synthase (Homo sapiens, UniProt P24557); details: cited from earlier work; for Thromboxane synthase: Table III arrows, reference drugs
T2 construct: MDS
T2 sequence (P24557 1-533): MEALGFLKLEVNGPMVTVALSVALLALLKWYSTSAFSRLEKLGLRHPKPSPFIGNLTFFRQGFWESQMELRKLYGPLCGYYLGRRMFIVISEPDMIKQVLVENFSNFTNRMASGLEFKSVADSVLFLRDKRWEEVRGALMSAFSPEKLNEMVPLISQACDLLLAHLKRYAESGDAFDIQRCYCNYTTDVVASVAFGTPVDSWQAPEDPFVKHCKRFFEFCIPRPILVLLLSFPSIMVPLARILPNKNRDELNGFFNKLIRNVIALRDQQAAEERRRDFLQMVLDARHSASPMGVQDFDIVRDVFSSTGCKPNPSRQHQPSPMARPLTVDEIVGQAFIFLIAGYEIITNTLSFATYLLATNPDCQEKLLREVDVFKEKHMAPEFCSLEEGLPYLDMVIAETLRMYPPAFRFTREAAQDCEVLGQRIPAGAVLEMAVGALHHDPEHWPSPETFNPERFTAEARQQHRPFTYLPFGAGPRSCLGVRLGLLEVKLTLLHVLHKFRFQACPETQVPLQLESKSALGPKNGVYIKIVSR

PGI2 formation = details: Table III arrows, reference drugs; cited from earlier work
mice carotid artery = assay: FeCl3-induced thrombus formation in mice carotid artery; format: in vivo
Method: FIG. 14 The antithrombotic activity of nstpbp5185 in FeCl3-induced thrombi formation in mice carotid artery. (A) Mice were intravenously administered with Heparin (10 or 100 U kg^−1), Aspirin (40 or 80 μg g^−1), or different doses of nstpbp5185 (B). After 5 min, FeCl3 injury was induced by a filter paper saturated with ferric chloride solution (10%). After removal of the paper, carotid blood flow (ml min^−1) was monitored continuously until thromboembolism formation or for 60 min. (C) Mice were orally administered with different doses of Aspirin and nstpbp5185 (D). Both drugs were suspended in 1% CMC. Blood flow monitoring were recorded used analyzed Labchart software (AD instruments). Data are presented as the mean±SEM (n≧3). **P<0.01 and ***P<0.001 as compared with the vehicle control (DMSO).
Mice were intravenously or orally administered with different doses of nstpbp5185.

[1] = system: human platelet suspension; assay: Arachidonic acid-induced platelet aggregation in human platelet suspension; format: cell-based; details: AA 200 μM
Method: (§1) Human platelet suspension (PS) was prepared according to the method described previously. Briefly, blood sample, freshly obtained from healthy volunteers who had taken no medications during the preceding 2 weeks, was treated with acid citrate/dextrose (ACD) in a volume ratio of 9:1. After centrifugation at 120 g, 25° C. for 9 min, platelet-rich plasma was transferred into another plastic tube and incubated with heparin (6.4 U/ml) as well as prostaglandin E1 (1 μM). Platelets were spun down by centrifugation at 500 g, 25° C. for 8 min and subsequently washed two times with Tyrode solution (NaH2PO4 0.4 mM; NaCl 136.9 mM; KCl […]; NaHCO3 11.9 mM; CaCl2 2 mM; MgCl2 2.1 mM; glucose 11.1 mM; BSA 3.5 mg/ml; pH 7.35-7.4). The washed platelets were finally suspended in Tyrode's solution and the platelet count was adjusted to 3.75×10^8 platelets/ml. For platelet-rich plasma (PRP) preparation, whole blood was anticoagulated with 1/10 vol of sodium citrate (3.8%, w/v) and centrifuged at 150 g, 25° C. for 9 min.
(§2) Platelet aggregation was measured turbidimetrically with a Lumi-aggregometer (Payton Scientific) at 37° C. under stirring condition (900 rpm). Platelet suspensions were prewarmed to 37° C. for 2 min in a silicone-treated glass cuvette. Nstpbp5185 was added 3 min before the addition of platelet-aggregation inducers. The extent of platelet aggregation was determined by recording the increase of light transmission relative to that of control (maximal aggregation, as 100%) for 6 min after the addition of inducer. The final volume and platelet count for measuring platelet aggregation were 500 μl and 3×10^8/ml, respectively.

[2] = system: mesenteric venules of mice; assay: Fluorescein sodium-induced platelet thrombus formation in mesenteric venules of mice; format: in vivo
Method: A modification of the method was used. Male ICR mice (12-14 g) were anesthetized with sodium pentobarbital (50 mg/kg, i.p.). […] Five min later, various doses of nstpbp5185 (2 and 4 μg/g), aspirin (150 and 250 μg/g), or DMSO (control) were administered by i.v. through other lateral tail vein. The injected volume of the nstpbp5185, aspirin, or DMSO (control) was smaller than 10 μl. A segment of the small intestine with its mesentery attached was exteriorized through a midline incision on the abdominal wall and placed onto a transparent plastic plate for microscopic observation. Frequent rinsing of the mesentery with warm isotonic saline kept at 37° C. was performed to prevent the mesentery from drying out. Microvessels in the mesentery were observed under transillumination from a halogen lamp. Venules with diameters of 30-40 μm were selected to be irradiated to produce a microthrombus. In the epi-illumination system, light from a 100-W mercury lamp was filtered through a filter (B-2A, Nikon, Tokyo, Japan) with a dichromic mirror (DM 510, Nikon). The filtered light eliminated wavelengths below 520 nm irradiated a microvessel through an objective lens (20×). The area of irradiation was about 100 μm in diameter on the focal plane. Ten minutes after administration of the dye, the irradiation by filtered light and a timer were simultaneously started, and thrombus formation was observed on a TV-monitor. Occlusion time was recorded as the time interval for inducing thrombus formation leading to cessation of blood flow.
After giving 50 μg/g fluorescein sodium, the irradiation of mesenteric venules induced thrombus formation which is consist of activated platelets and fibrin clots. […] In the vehicle-treated group, the average TTO was approximately 143.71±4.99 sec (n=17). The group pre-treated with compound 5185 (10 μg/g), the average TTO value was 208.67±6.99 sec (n=12).

rats = assay: Gastric damage in rats; format: in vivo; details: 150 μg g^−1 oral, 3 h
Method: Rats (Wistar) were fasted overnight then given aspirin at dose of 150 mg/kg or nstpbp5185 at 40 mg/kg. Both drugs were suspended in 1% carboxymethylcellulose. Three hours later, the rats were sacrificed, the stomach excised, and the extent of hemorrhagic erosions scored by an observer unaware of treatment the rats received. Each lesion larger than 2 mm was counted for comparison. The stomach was fixed in formalin (pH, 7.4) and photographed.

[3] = system: human platelet suspension; assay: Collagen-induced platelet aggregation in human platelet suspension; format: cell-based; details: Platelet; collagen 10 μg/ml; washed human platelets; read-out: IC50 collagen-induced platelet aggregation in human PS
Method: as §1, §2

Cox-1,-2 = details: Table III arrows, reference drugs; cited from earlier work
[4] = system: human platelet suspension; assay: U46619-induced platelet aggregation in human platelet suspension; format: cell-based; details: 500 μM; data not shown
Method: as §1, §2

[5] = system: human platelet suspension; assay: Thromboxane B2 formation in human platelet suspension; format: cell-based; details: Homo sapiens, Platelet; collagen-activated platelets; 500 μM; read-out: inhibition of TXB2 formation
Method: Human platelet suspension (3.75×10^8/ml) was preincubated in the presence or absence of nstpbp5185 or aspirin for 3 min before the addition of collagen or AA. Six minutes after the addition of agonist, […] indomethacin and 2 mM EDTA were added to the reaction suspension. After centrifugation in an Eppendorf centrifuge at 14,000 g for 2 min, the thromboxane B2 (TXB2), the stable metabolite of TXA2, levels of the supernatant were measured using a competitive enzyme-immuno assay (EIA) kit according to the instructions of the manufacturer.

[6] = system: human platelet-rich plasma; assay: Collagen-induced platelet aggregation in human platelet-rich plasma; format: cell-based; details: human PRP, data not shown, read-out: IC50 collagen-induced platelet aggregation in human PRP
Method: as §1, §2

SMILES	Thromboxane receptor (thromboxane receptor)	Thromboxane synthase (Thromboxane synthase)	PGI2 formation (PGI2 formation)	IC50 (thromboxane receptor; reference drug) [µM]	IC50 (Thromboxane synthase; reference drug) [µM]	time to FeCl3-induced occlusion (mice carotid artery; heparin 10 U kg^−1 or aspirin 40 μg g^−1 i.v.)	FeCl3-induced thrombus formation (mice carotid artery; heparin 100 U kg^−1 or aspirin 80 μg g^−1 i.v.)	IC50 [1] [µM]	occlusion time ([2]; 250 μg g^−1 i.v.) [s]	occlusion time at return to control, within 60 min ([2]; 250 μg g^−1 i.v.) [s]	occlusion time within 40 min after administration ([2]; 250 μg g^−1 i.v.) [s]	time until occlusion time returned to the control value ([2]; 250 μg g^−1 i.v.) [min]	change of occlusion time ([2]; low dose (below 250 μg g^−1))	gastric lesions (>2 mm) (rats)	IC50 [3] [µM]	Cox-1,-2 (Cox-1,-2)	effect on U46619-induced platelet aggregation [4]	inhibition at 500 µM [5] [%]	IC50 [6] [µM]
Cc1ccc2c(c1CCC(=O)O)CC[C@@H](NS(=O)(=O)c1ccc(Cl)cc1)C2 [Example S18886]	↓	↓	–	–	–	–	–	–	–	–	–	–	–	–	–	–	–	–	–
O=C(O)CCCCO/N=C(/c1cccnc1)c1cccc(C(F)(F)F)c1 [Ridogrel]	↓	↓	↑	1	0.001	–	–	–	–	–	–	–	–	–	–	–	–	–	–
CC(=O)Oc1ccccc1C(=O)O [aspirin, reference compound]	–	–	↓	–	–	about 10 min	blocked	313 ± 18.7	175.5 ± 25.3	82.6 ± 9.4	155.0 ± 7.1	≤ 60	did not significantly change	marked lesions	~190	↓	no effect	96	5100 ± 700
